From patent publication US6933288B2, “Pyranosyl cytosines: pharmaceutical formulations and methods” (ISIS Pharmaceuticals, Inc., priority 2002, dated 2005)

Test system: C. Albicans
Assay: Activity against fungi (C. albicans)
Type: cell-based
Conditions: Table 10
Source text: Table 10 presents results of activity assays for selected compounds against fungi, as exemplified by activity against c. albicans according to assays known in the art.

`CNCCNC(CCN)C(=O)CC1C(C(=O)N2CCNCC2)OC(n2ccc(N)nc2=O)C(O)C1O` (stereo not drawn) [compound 1] and `CNCC(=O)NC(CCN)C(=O)NC1C(C(=O)N2CCNCC2)OC(n2ccc(N)nc2=O)C(O)C1O` (stereo not drawn) [compound 5] fall in the same range of “Activity against C. Albicans” value: 1 to 3 µM for the first, 1 to 3 µM for the second.

For `CNCC(=O)NC(CCN)C(=O)CC1C(C(=O)N2CCNCC2)OC(n2ccc(NCCCN3CCN(C)CC3)nc2=O)C(O)C1O` (stereo not drawn) [compound 2], the “Activity against C. Albicans” value was 3 to 6 µM.
